Data as given in US8580557B2, “Casein hydrolyzate, process for producing the same and use thereof” (Calpis Co., Ltd., priority 2003, dated 2013).

System: spontaneously hypertensive rats (SHR)
Experiment: Hypotensive effect after oral administration, tail-cuff method
Assay type: in vivo, rat
Conditions: SHR (male), 32 mg/kg body weight, 5 hours after administration vs before
Protocol: Each of the casein hydrolysate powders prepared in Example and Comparative Examples shown in Table 1 were administered orally to five 27-week-old spontaneously hypertensive rats (SHR) (male) at a dose of 32 mg/kg body weight. Blood pressure was measured before the administration and 5 hours after the administration by tail-cuff method with Tail-cuff PB-98 (manufacture by SOFTRON) to evaluate the change in blood pressure. As a control, casein was administered instead of the powders, and the same evaluation was made. Before the measurement of blood pressure, rats were warmed in a preheat box (manufactured by CSI JAPAN) at 45° C. for 8 minutes.
Further, in accordance with the above method, a dose-dependent hypotensive effect was tested using the casein hydrolysate powders prepared in Example 1.

**Q.** How did the “Blood pressure drop (average ± SD)” value turn out when casein [Control] was run?
**A.** −2.5 ± 7.5

**Q.** What about the “Blood pressure drop (average ± SD)” value (listed as casein) of the same substance?
**A.** no change in blood pressure was observed
